Assay results reported in ChEMBL document CHEMBL1127252, “Anti-solid tumor efficacy and preparation of N-[[1-[[2-(diethylamino)ethyl]amino]-9-oxo-9H-thioxanthen-4-yl]methyl]methanesulfonamide (win 33377) and related derivatives” (1994).

Assays:
Format in all cases: functional
[1] = species: Mus musculus; assay: Survival (Long Term Cure) of tumor inoculated mice after 100 days.
[2] = test system: Mus musculus; assay: The maximum tolerated total dose following i.v. administration in mice.
[3] = species: Mus musculus; assay: Percent tumor growth inhibition in mice.
[4] = species: Mus musculus; assay: Log cell kill of tumor (indicating the tumor growth delay) in mice.
[5] = test system: Mus musculus; assay: Maximum tolerated total dose (MTD) was determined after intravenous administration in mice

Row | Compound | LTC [1] | MTD [2] | T/C [3] | LCK [4] | MTD [5]
1 | CCN(CC)CCNc1ccc(CNC(=O)C(F)(F)F)c2sc3ccccc3c(=O)c12 | 0 | 1171 mg/kg | 21% | 1.5 | 
2 | CCN(CC)CCNc1ccc(CNC)c2sc3ccccc3c(=O)c12 | 1 | 800 mg/kg | 0% | 3.1 | 
3 | CCN(CC)CCNc1ccc(CNC=O)c2sc3ccccc3c(=O)c12 | 1 | 576 mg/kg | 0% | 3 | 
4 | CCN(CC)CCNc1ccc(CNC(=O)c2ccccc2)c2sc3ccccc3c(=O)c12 | 1 | 252 mg/kg | 26% | 0.5 | 
5 | CCN(CC)CCNc1ccc(CN)c2sc3ccccc3c(=O)c12 | 4 | 270 mg/kg | 0% | >4 | 
6 | CCN(CC)CCNc1ccc(CN(C)C)c2sc3ccccc3c(=O)c12 | 0 | 544 mg/kg | 23% | 0.9 | 
7 | CCN(CC)CCNc1ccc(CNS(C)(=O)=O)c2sc3ccc(O)cc3c(=O)c12 | 0 | 47 mg/kg | 11% | 3.7 | 
8 | COc1cccc2c1C(=O)c1c(O)c3c(c(O)c1C2=O)C[C@@](O)(C(=O)CO)C[C@@H]3O[C@H]1C[C@H](N)[C@H](O)[C@H](C)O1 [DOXORUBICIN] | 1 | 18 mg/kg | 0% | 2.9 | 
9 | CCN(CC)CCNc1ccc(CNC(=O)OC)c2sc3ccccc3c(=O)c12 | 2 | 248 mg/kg | 0% | 8.8 | 
10 | CCOP(=O)(NCc1ccc(NCCN(CC)CC)c2c(=O)c3ccccc3sc12)OCC | 0 | 1298 mg/kg | 36% | <0.5 | 
11 | CCN(CC)CCNc1ccc(CNC(C)=O)c2sc3ccccc3c(=O)c12 | 3 | 540 mg/kg | 0% | 2.7 | 
12 | CCN(CC)CCNc1ccc(CO)c2sc3ccccc3c(=O)c12 [HYCANTHONE] | 0 | 290 mg/kg | 4% | 3.4 | 
13 | CCN(CC)CCNc1ccc(CNC)c2sc3ccc(O)cc3c(=O)c12 | 0 | 60 mg/kg | 0% | 4.6 | 
14 | CCN(CC)CCNc1ccc(CNC(=O)OC)c2sc3ccc(OC)cc3c(=O)c12 | 5 | 240 mg/kg | 0% | >4.5 | 
15 | CCN(CC)CCNc1ccc(CN(C)S(C)(=O)=O)c2sc3ccccc3c(=O)c12 | 1 | 304 mg/kg | 0% | 2.5 | 
16 | CCN(CC)CCNc1ccc(CNC)c2sc3ccc(OC)cc3c(=O)c12 | 1 | 880 mg/kg | 0% | 5.1 | 
17 | CCN(CC)CCNc1ccc(CNS(C)(=O)=O)c2sc3ccccc3c(=O)c12 | 3 |  | 0% | 2 | 124 mg/kg
18 | CCN(CC)CCNc1ccc(CNS(=O)(=O)c2ccccc2)c2sc3ccccc3c(=O)c12 | 1 | 840 mg/kg | 0% | 2.9 | 
19 | CCN(CC)CCNc1ccc(CNS(C)(=O)=O)c2sc3ccc(OC)cc3c(=O)c12 | 1 | 248 mg/kg | 0% | 6.5 | 
